Columns and labels:
Experiment in all cases: HPLC product quantification, Eadie-Hofstee plot
Assay type in all cases: biochemical, Scutellaria baicalensis
Details in all cases: UDP-Glc as donor; 100 mM Tris-HCl pH 7.0, 37 °C, 10 min; baicalein 0.5-200 μM
[1] = tested on: T1, SbUGT3
T1 construct: full-length ORF (RT-PCR) in pYesdest17, E. coli Rosetta (DE3), Ni-NTA purified
Text: HPLC product quantification, Eadie-Hofstee plot on SbUGT3

[2] = tested on: T2, SbUGT2
T2 construct: full-length ORF (RT-PCR) in pYesdest17, E. coli Rosetta (DE3), Ni-NTA purified
Text: HPLC product quantification, Eadie-Hofstee plot on SbUGT2

[3] = tested on: T3, SbUGT1
T3 construct: full-length ORF (de novo synthesized) in pYesdest17, E. coli Rosetta (DE3), Ni-NTA purified
Text: HPLC product quantification, Eadie-Hofstee plot on SbUGT1

Km [1]: 2.67 µM
Km [2]: 101 µM
Km [3]: 3.14 µM
SMILES: O=c1cc(-c2ccccc2)oc2cc(O)c(O)c(O)c12 [baicalein]
